Among the test systems are NCI-H23 lung; UO-31 renal; NCI-H226 lung; HCT-15 colon; UACC-62 melanoma; COLO 205 colon; CCRF-CEM leukemia; TK-10 renal; HL-60(TB) leukemia; MOLT-4 leukemia.
Holding throughout (assay): NCI tumour cell line growth inhibition, 48 h

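48-hour exposure; five concentrations; linearly interpolated endpoints. At the TGI there is no net growth.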

As to `Cc1cccc(NC(=S)N/N=C(/c2ccccc2)c2ccccn2)c1`, the TGI came out at 13.9 µM with NCI-H23 lung; 10.4 µM with UO-31 renal; 6 µM in the assay on NCI-H226 lung; 16.5 µM with HCT-15 colon; 15.5 µM with UACC-62 melanoma; 12.8 µM in the assay with COLO 205 colon. Besides, the TGI is 1.48 µM with CCRF-CEM leukemia, 16 µM in the assay with TK-10 renal, 1.53 µM in the assay on HL-60(TB) leukemia and > 6.59 µM in the assay with MOLT-4 leukemia.

With `CSc1ccc2c(cc1=O)[C@@H](NC(=O)c1ccc(F)cc1)CCc1cc(O)c(O)c(O)c1-2`, the TGI in the assay with NCI-H23 lung, with UO-31 renal, in the assay with NCI-H226 lung, in the assay with HCT-15 colon, with UACC-62 melanoma and with COLO 205 colon was > 100 µM each time. Further, the TGI in the assay on CCRF-CEM leukemia, in the assay with TK-10 renal, in the assay on HL-60(TB) leukemia and with MOLT-4 leukemia was > 100 µM throughout.

`CCN(CC)C1=Nc2ccccc2-n2c(C)cnc2C1`: the TGI with NCI-H23 lung, in the assay with UO-31 renal, with NCI-H226 lung, in the assay with HCT-15 colon, in the assay with UACC-62 melanoma and in the assay with COLO 205 colon was > 100 µM in each case. Further, the TGI in the assay on CCRF-CEM leukemia, with TK-10 renal, with HL-60(TB) leukemia and in the assay on MOLT-4 leukemia was > 100 µM each time.

As to `CCOP(C)(=O)C(Nc1ccc(F)cc1)c1ccc(F)cc1` (stereo not drawn), the TGI with NCI-H23 lung, in the assay with UO-31 renal, with NCI-H226 lung, in the assay on HCT-15 colon, with UACC-62 melanoma and with COLO 205 colon was > 100 µM each time. In addition, the TGI in the assay with CCRF-CEM leukemia, in the assay on TK-10 renal, in the assay on HL-60(TB) leukemia and in the assay on MOLT-4 leukemia was > 100 µM in each case.

For the compound `Cn1cnc([N+](=O)[O-])c1Sc1nc(N)nc2c1ncn2Cc1ccccc1`, the TGI in the assay on NCI-H23 lung stood at 36.9 µM; in the assay with UO-31 renal, 34.2 µM; in the assay on NCI-H226 lung, 60.2 µM; in the assay on HCT-15 colon it was 45.8 µM; in the assay on UACC-62 melanoma, 31.4 µM; in the assay with COLO 205 colon, 32.1 µM. The TGI in the assay on CCRF-CEM leukemia is > 100 µM; in the assay with TK-10 renal, 41.9 µM; in the assay on HL-60(TB) leukemia, 47.7 µM.

Regarding `Cc1nc2c(ncn2CCO)c(=O)[nH]1`, the TGI in the assay on NCI-H23 lung, in the assay on NCI-H226 lung, with HCT-15 colon, in the assay on UACC-62 melanoma, in the assay with COLO 205 colon and in the assay on CCRF-CEM leukemia was > 100 µM in each case. For the same compound, the TGI with TK-10 renal and in the assay with HL-60(TB) leukemia was > 100 µM each time.

In the case of `N/N=C(\C(=O)Nc1ccc([N+](=O)[O-])cc1)C(C1=Nc2cc([N+](=O)[O-])ccc2NC1)[N+](=O)[O-]` (stereo not drawn), the TGI with NCI-H23 lung, in the assay on UO-31 renal, in the assay on NCI-H226 lung, with HCT-15 colon, in the assay with UACC-62 melanoma and with CCRF-CEM leukemia was > 100 µM throughout. Moreover, the TGI in the assay with TK-10 renal, with HL-60(TB) leukemia and in the assay on MOLT-4 leukemia was > 100 µM throughout.

On to `CCCCCC(/C=N/N)C(O)(C(F)(F)F)C(F)(F)F` (stereo not drawn), for which the TGI is 9.49 µM with NCI-H23 lung; 8.63 µM in the assay with NCI-H226 lung; 9.54 µM in the assay with HCT-15 colon; > 10 µM in the assay on UACC-62 melanoma; 3.4 µM in the assay with COLO 205 colon; > 10 µM in the assay on CCRF-CEM leukemia. Further, the TGI with TK-10 renal, in the assay with HL-60(TB) leukemia and in the assay on MOLT-4 leukemia was > 10 µM in each case.

`CN(C)/C=N/S(=O)(=O)c1nn2c(C=O)c(-c3ccc(-c4ccc([N+](=O)[O-])cc4)o3)nc2s1`: the TGI was 16.2 µM in the assay on NCI-H23 lung; 5.99 µM in the assay on UO-31 renal; > 64.7 µM in the assay with NCI-H226 lung; 12.5 µM in the assay with HCT-15 colon; 16.8 µM in the assay on UACC-62 melanoma; 3.98 µM in the assay on CCRF-CEM leukemia. Also, the TGI is 15.1 µM with TK-10 renal, 2.54 µM in the assay with HL-60(TB) leukemia and 14.3 µM in the assay with MOLT-4 leukemia.

Consider `C[C@]12CCC(=O)C=C1CC[C@@H]1C2CC[C@]2(C)Nc3c(ncn3-c3ccc(F)cc3)CC12` (stereo partly drawn), for which the TGI is > 100 µM with NCI-H23 lung; > 100 µM with UO-31 renal; > 100 µM with NCI-H226 lung; 54.4 µM with UACC-62 melanoma; 38.4 µM in the assay with COLO 205 colon; 82.6 µM with CCRF-CEM leukemia. The TGI is > 100 µM with TK-10 renal, > 100 µM with HL-60(TB) leukemia and 90.8 µM in the assay with MOLT-4 leukemia.

`OCSc1nn(CO)c(=S)s1`: the TGI with NCI-H23 lung was found to be 40.5 µM; in the assay with NCI-H226 lung, 92.9 µM; in the assay with HCT-15 colon, 37.8 µM; in the assay on UACC-62 melanoma it was 34.8 µM; in the assay with COLO 205 colon it was 67.8 µM; with CCRF-CEM leukemia it was 55.1 µM. The figures for the TGI with TK-10 renal, with HL-60(TB) leukemia and with MOLT-4 leukemia were > 100 µM, 54 µM and 51.6 µM, respectively.

As to `CCNCCNC(=O)c1ccc(Br)cc1`, the TGI with NCI-H23 lung, in the assay on UO-31 renal, in the assay with NCI-H226 lung, with HCT-15 colon, in the assay on UACC-62 melanoma and in the assay on CCRF-CEM leukemia was > 100 µM each time. The TGI in the assay on TK-10 renal, in the assay on HL-60(TB) leukemia and in the assay on MOLT-4 leukemia was > 100 µM each time.

`C=C(C(=O)O)[C@@H]1C[C@@H]2O[C@H]1CC(C)=CCC/C(C)=C/CC[C@@]2(C)O`: the TGI with UO-31 renal, in the assay on NCI-H226 lung, in the assay with HCT-15 colon, in the assay on UACC-62 melanoma, in the assay with COLO 205 colon and with CCRF-CEM leukemia was > 100 µM in each case. The TGI in the assay on TK-10 renal, in the assay on HL-60(TB) leukemia and in the assay on MOLT-4 leukemia was > 100 µM in each case.

On to `N#Cc1c2nc3ccccc3nc2n2ccc3ccccc3c12`, for which the TGI with NCI-H23 lung, in the assay with UO-31 renal, in the assay with NCI-H226 lung, with HCT-15 colon, in the assay on COLO 205 colon and with CCRF-CEM leukemia was > 100 µM throughout. In addition, the TGI with TK-10 renal, with HL-60(TB) leukemia and in the assay on MOLT-4 leukemia was > 100 µM each time.

Turning to `COc1cc(C=O)c(-c2cc3c(cc2C=O)OCO3)c(OC)c1OC`, the TGI is 222 µM with NCI-H23 lung; 280 µM in the assay with NCI-H226 lung; 279 µM in the assay with HCT-15 colon; > 290 µM in the assay on UACC-62 melanoma; > 290 µM with COLO 205 colon; > 290 µM in the assay on CCRF-CEM leukemia. Besides, the TGI with TK-10 renal, with HL-60(TB) leukemia and in the assay with MOLT-4 leukemia was > 290 µM each time.

As for `NC(CCCCNC(=O)C(Cc1ccccc1)NC(=O)OCc1ccccc1)C(=O)NC(CCCCNC(=O)C(Cc1ccccc1)NC(=O)OCc1ccccc1)C(=O)NC(CCCCNC(=O)C(Cc1ccccc1)NC(=O)OCc1ccccc1)C(=O)NC(CCCCNC(=O)C(Cc1ccccc1)NC(=O)OCc1ccccc1)C(=O)NC(CCCCNC(=O)C(Cc1ccccc1)NC(=O)OCc1ccccc1)C(=O)NC(CCCCNC(=O)C(Cc1ccccc1)NC(=O)OCc1ccccc1)C(=O)O` (stereo not drawn), the TGI in the assay on NCI-H23 lung, in the assay on UO-31 renal, in the assay on NCI-H226 lung, with HCT-15 colon, in the assay on UACC-62 melanoma and with CCRF-CEM leukemia was > 100 µM throughout. The TGI in the assay on TK-10 renal, in the assay on HL-60(TB) leukemia and in the assay on MOLT-4 leukemia was > 100 µM each time.

For the compound `CCc1n[nH]c(=O)n1NC(=O)/C=C\C(=O)O`, the TGI with NCI-H23 lung, with NCI-H226 lung, in the assay on HCT-15 colon, in the assay on UACC-62 melanoma, in the assay with COLO 205 colon and in the assay with CCRF-CEM leukemia was > 100 µM each time. Besides, the TGI in the assay on TK-10 renal, in the assay with HL-60(TB) leukemia and in the assay on MOLT-4 leukemia was > 100 µM in each case.

As to `O=C1C[C@H]2[C@H](c3ccc(Br)cc3)[C@H]3C(=O)c4ccccc4NC(=O)[C@@H]3[C@@]2(O)c2ccccc2N1`, the TGI with NCI-H23 lung is 38.9 µM; in the assay with NCI-H226 lung, > 100 µM; with HCT-15 colon it was > 100 µM; in the assay with UACC-62 melanoma, 61.5 µM; in the assay on COLO 205 colon, 40.2 µM; with CCRF-CEM leukemia, 53.3 µM. Further, the figures for the TGI in the assay with TK-10 renal, with HL-60(TB) leukemia and with MOLT-4 leukemia were 56.8 µM, 15.3 µM and 25 µM, respectively.

As for `C/C(=N\Nc1nc2ccccc2o1)c1ccncn1`, the TGI was > 47.7 µM in the assay on NCI-H23 lung; 75.5 µM with UO-31 renal; > 100 µM in the assay with NCI-H226 lung; > 58.1 µM in the assay on HCT-15 colon; > 51.3 µM with COLO 205 colon; > 100 µM in the assay with CCRF-CEM leukemia. Moreover, the TGI in the assay on TK-10 renal was > 63.4 µM; in the assay with HL-60(TB) leukemia, 0.0585 µM; in the assay with MOLT-4 leukemia, > 100 µM.

Consider `CC1=NN(C(=O)Cc2ccccc2)C(=O)/C1=C\c1ccco1`, for which the TGI with NCI-H23 lung, with UO-31 renal, in the assay with NCI-H226 lung, with HCT-15 colon, with COLO 205 colon and in the assay with CCRF-CEM leukemia was > 100 µM throughout. For the same compound, the TGI in the assay with TK-10 renal, with HL-60(TB) leukemia and in the assay on MOLT-4 leukemia was > 100 µM each time.

The values are drawn from PubChem BioAssay (NCI).
